{"source": "paper PMC13382108", "about": "(Frontiers in Pharmacology, 2026)", "assay": "In vivo pharmacokinetic study in rats (plasma, HPLC)", "settings": "SD rats, intragastric, FLU 40 mg/kg alone, as TF-1 (+48 mg/kg TDS) or TF-2 (+96 mg/kg TDS)", "protocol": "A total of 25 healthy male SD rats were used. After adaptive feeding, rats were randomly divided into five groups (n = 5). […] Blood samples were placed in heparin-pretreated centrifuge tubes. Whole blood was centrifuged at 6,000 rpm for 3 min to separate plasma, which was stored at −20 °C or −80 °C for subsequent analysis. […] The mean plasma concentration-time curves were plotted. The non-compartmental model in DAS 2.1.1 software was used to calculate major pharmacokinetic parameters. The pharmacokinetic interactions after combined medication were evaluated by comparing parameters between monotherapy groups and TF combination groups."}
{"smiles": "CNCCC(Oc1ccc(C(F)(F)F)cc1)c1ccccc1", "note": "(stereo not shown) [FLU, Fluoxetine]", "values": [{"measurement": "t1/2z of FLU", "result": 6.563, "unit": "h"}]}
